In patent publication US20130065969A9, “Odour Compounds” (priority 2009, published 2013):

Legend:
[1] = Vapour pressure by saturated headspace trapping and GC quantification; type: physicochemical; conditions: headspace concentration at constant 25° C., mean of three independent measurements
Method: For each compound the vapour pressure was determined via the following procedure: 500 mg of the test compound was added to a headspace container which was then scaled. The container was incubated at constant 25° C. until the compound reached equilibrium between the gas and the liquid phase. An exactly defined but variable volume between 0.5-1.0 L of this saturated headspace was trapped on a micro filter using Porapak Q as sorbent. After filter extraction with 30-100 μl methyl tert.-butyl ether), an aliquot of the extract was analyzed by gas chromatograph (GC). Quantification was performed by the external standard calibration method. The concentration in the original headspace was calculated (in terms of μg/l) from the headspace volume sucked through the micro filter and the aliquot of the filter extract injected into the gas chromatograph. The final headspace concentration value for a given test compound was obtained as the mean value of three independent measurements.
Further information of the technique described hereinabove may be found in the article of F. Etzweiler, E. Senn, N. Neuner-Jehle, Ber. Bunsen-Ges. Phys. Chem. 1984, 88, 578.

[2] = Odour threshold by GC detection at the sniffing port (panel of 5 persons); conditions: mean of individual thresholds of 5 panelists
Method: For each compound the odour threshold value was determined by gas chromatograph (GC) detection. […] Each panelist (panel of 5 persons) smelled blind and pressed a button upon perceiving an odor. If the recorded time matched the retention time, the sample was further diluted. The last quantity detected at the correct retention time was the panelist's individual odor threshold. The final threshold value for a given test compound was obtained as the mean value of the individual threshold levels.
Further information of the technique described hereinabove may be found in N. Neuner-Jehle, F. Etzweiler. ‘Measuring of Odors’, in P. Müller. D. Lamparsky (Eds,). ‘Perfumes. Art, Science and Technology’, Elsevier Appl. Science Publ., London. 1991: pp. 153.

Structure (SMILES)	Vapour Pressure [1] [µg/L]	Odour Threshold [2] [ng/L]
C/C(=C\C(C)C)C(C)OC(C)(C)COC(=O)C1CC1 (centres unmarked) [(3″E)-2-(3,5-Dimethylhex-3-en-2-yloxy)-2-methylpropyl cyclopropanecarboxylate, reference compound]	27.57	5.9
CC/C(=C\C(C)C)C(C)OC(C)(C)COC(=O)C1CC1 (centres unmarked) [Example 2, (3″E)-2′-(3″-Ethyl-5″-methylhex-3″-en-2″yloxy)-2′-methylpropyl cyclopropanecarboxylate]	10.61	2.2
CC/C(=C\C(C)C)C(C)OC(C)(C)COC(=O)C1CCC1 (centres unmarked) [Example 4, (3″E)-2′-(3″-Ethyl-5″-methylhex-3″-en-2″-yloxy)-2′-methylpropyl cyclobutanecarboxylate]	4.76	–
